# Residues, ends and D or L forms follow the SMILES beside them.
# How the values were obtained:
# [1] = system: 4T1 cells; assay: Annexin V/propidium iodide apoptosis assay, 4T1; assay type: cell-based, mouse; conditions: 2 h, versus combined NLN or NEW and KLA
# Procedure: (§1) For apoptosis assays, cells were plated in 6-well plates at a density of 5 × 10^5 cells per well overnight and treated with different concentrations of peptides (0, 2, 4, 8, 16, 32, 64, 128, and 256 µM) at 37 °C for 2 h. Cells were harvested, washed, and mixed with annexin V binding buffer. Then, 1 μg/mL of propidium iodide and 5 μL of APC annexin V reagent (ThermoFisher Scientific, Waltham, MA) were added to stain necrotic and apoptotic cells. Percent of annexin V-positive and propidium iodide-negative cells were measured using flow cytometry.
# [2] = system: Panc-1 cells; assay: Annexin V/propidium iodide apoptosis assay, Panc-1; assay type: cell-based, human; conditions: 2 h, versus combined NLN or NEW and KLA
# Procedure: as §1
# [3] = system: 4T1-luc cells; assay: 4T1-luc orthotopic spontaneous metastasis model; assay type: in vivo; conditions: 10 mg/kg i.v. thrice weekly for 3 weeks; for hematologic parameters and liver and kidney functional marker levels: n = 5/group; for luminescence signals and total photon flux from the whole body: n = 10 per group; for luminescence signals and total photon flux from the whole body / TUNEL-positive apoptotic cells in primary tumor tissues / number of metastatic tumor nodules / percent survival / tumor volume / tumor weight: more efficiently than combined NLN or NEW and KLA
# Procedure: (§2) 4T1-luc cells (1 × 10^6 cells) were orthotopically inoculated into the mammary fat pads in 6-week-old female BALB/c mice. Panc-1 cells (1 × 10^6 cells) were subcutaneously inoculated into lower right flank in 6-week-old female BALB/c nude mice To monitor 4T1-luc tumor growth, mice were intraperitoneally injected with D-luciferin (150 mg/kg body weight), incubated for 10 min, and subjected to a whole-body bioluminescence imaging using the IVIS imaging system (Perkin Elmer). At two weeks after the inoculation, mice were randomly sorted into groups based on the luminescence intensity (4T1-luc) or tumor size (Panc-1). CD44v6-binding peptides were administered intravenously to 4T1 tumor-bearing mice (n = 6 per group) through the tail vein (14.2 mg/kg body weight, thrice weekly for three weeks) alone or in combination with crizotinib. Crizotinib in 5% DMSO was administered orally (12.5 and 25 mg/kg body weight, twice weekly for three weeks). CD44v6-targeted pro-apoptotic peptides or CD44v6-binding peptides and pro-apoptotic peptide in combination were intravenously administered to 4T1 or Panc-1 tumor-bearing mice (n = 10 per group) through the tail vein (10 mg/kg body weight, thrice weekly for 3 weeks). Primary tumor growth was monitored by measuring tumor volumes using a caliper and total photon flux in the whole body using the IVIS imaging system. The body weights and tumor ulceration were monitored throughout the treatment period. At the end of the treatments, half of the mice were used for the collection of blood, sacrificed, and the primary tumor weights and numbers of metastatic tumor nodules in the isolated lungs were determined. The remaining mice were maintained until death to determine the survival rates. The hematological parameters and liver and kidney function markers in plasma and serum samples were analyzed as described above. The normal ranges of hematological parameters of the BALB/c mouse and BALB/c nude mouse were obtained from Charles River Laboratories website (www.criver.com).
# [4] = system: Panc-1 cells; assay: Panc-1 subcutaneous spontaneous metastasis model; assay type: in vivo, BALB/c nude mouse; conditions: 10 mg/kg i.v. thrice weekly for 3 weeks; more efficiently than combined NLN or NEW and KLA
# Procedure: as §2
# [5] = system: MDA-MB231 cells; assay: Intracellular trafficking with MitoTracker and LysoTracker; assay type: cell-based, human; conditions: peptide 10 µM, 37 °C, 2-4 h, confocal
# Procedure: To examine the intracellular trafficking of peptides cells were incubated with peptides (10 µM) at 37 °C for 2 h and stained with MitoTracker Deep Red FM (ThermoFisher Scientific), a mitochondrial marker. In another set of experiments, cells were incubated with peptides at 37 °C for 4 h and stained with LysoTracker Red DND-99 (ThermoFisher Scientific), a late endosome/lysosome marker. After staining, cells were fixed with 4% paraformaldehyde for 10 min at room temperature, stained with DAPI, and then mounted using ProLong gold anti-fade reagent (ThermoFisher Scientific). Subcellular fluorescence was detected using a confocal microscope (Zeiss).
# [6] = system: MDA-MB231 cells; assay: Annexin V/propidium iodide apoptosis assay, MDA-MB231; assay type: cell-based, human; conditions: 2 h, versus combined NLN or NEW and KLA
# Procedure: as §1
# [7] = system: MDA-MB231-luc cells; assay: MDA-MB231-luc experimental lung metastasis model; assay type: in vivo
# Procedure: A mouse model of lung metastasis of breast cancer was prepared by injecting 1 × 10^6 MDA-MB231-luc cells into 6-week-old female BALB/c nude mice via tail vein. To monitor the localization of the tumor cells in the lungs, the mice were injected intraperitoneally with D-luciferin at a dose of 150 mg/kg body weight and subjected to a whole-body bioluminescence imaging using IVIS imaging system (Perkin Elmer) after a 10-min resting period. Mice (n = 10 per group) were randomly assigned to groups based on the luminescence intensity. At 1 h after tumor cell injection, tumor-bearing mice received intravenous injections of CD44v6-binding peptides through the tail vein (14.2 mg/kg body weight, thrice weekly for 3 weeks) alone or in combination with orally administered crizotinib in 5% dimethyl sulfoxide (DMSO) (25 mg/kg of body weight, twice weekly for 3 weeks) as previously described, [29]. Metastatic tumor growth after treatments was monitored by measuring the total photon flux (number of photons/second) in the whole body using the IVIS imaging system. The body weights of mice and tumor ulceration were monitored throughout the treatment period. At the end of the treatment period, half of the mice (n = 5 per group) were used for the collection of blood, sacrificed, the lungs were harvested and weighed, and the numbers of metastatic tumor nodules in the lungs were counted. The remaining mice (n = 5 per group) were maintained until death to determine the survival rates. For the analysis of hematological parameters, 1 mL of blood was collected from each mouse and separated into 500 µL aliquots used to prepare serum and plasma. Serum was obtained by centrifuging clotted blood at 4 °C twice, followed by filtration (pore size: 0.22 µm). Plasma was obtained by centrifuging ethylenediaminetetraacetic acid-treated samples. Hematological parameters and liver and kidney function markers were measured by DGMIF (Daegu, Korea).
# [8] = biological target: CD44v6, endogenous in MDA-MB231 human breast tumor cells (human (endogenous in MDA-MB231)); assay: saturation binding to cells; saturation binding assays on MDA-MB231, 4T1, Panc-1 and MCF7 cells (Figure S2A); method and label of the peptide not given
# Chain of CD44v6, endogenous in MDA-MB231 human breast tumor cells (human (endogenous in MDA-MB231)) (P16070 21-742): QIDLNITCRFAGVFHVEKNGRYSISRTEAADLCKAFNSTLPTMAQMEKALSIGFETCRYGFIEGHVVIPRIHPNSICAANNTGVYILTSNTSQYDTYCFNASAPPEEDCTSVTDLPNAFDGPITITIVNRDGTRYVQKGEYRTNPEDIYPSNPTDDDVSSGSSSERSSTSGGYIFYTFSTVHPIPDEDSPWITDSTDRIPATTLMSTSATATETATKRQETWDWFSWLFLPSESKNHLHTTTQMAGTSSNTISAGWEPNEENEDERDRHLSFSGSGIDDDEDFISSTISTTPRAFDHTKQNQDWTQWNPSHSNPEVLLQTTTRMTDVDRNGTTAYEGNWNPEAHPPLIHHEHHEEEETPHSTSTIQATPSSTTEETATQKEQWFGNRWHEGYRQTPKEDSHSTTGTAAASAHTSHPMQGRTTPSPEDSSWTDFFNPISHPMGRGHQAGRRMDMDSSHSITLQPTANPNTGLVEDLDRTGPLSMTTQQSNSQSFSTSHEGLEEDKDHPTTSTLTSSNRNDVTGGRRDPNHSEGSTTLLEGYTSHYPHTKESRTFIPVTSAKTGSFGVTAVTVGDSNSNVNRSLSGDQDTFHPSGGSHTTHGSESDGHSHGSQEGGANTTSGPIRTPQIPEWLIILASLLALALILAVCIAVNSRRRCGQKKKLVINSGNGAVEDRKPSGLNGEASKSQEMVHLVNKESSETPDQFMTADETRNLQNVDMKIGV
Kd [8] [µM],Molecule,"induction of apoptosis, 4T1 [1]","induction of apoptosis, Panc-1 [2]",hematologic parameters and liver and kidney functional marker levels [3],luminescence signals and total photon flux from the whole body [3],TUNEL-positive apoptotic cells in primary tumor tissues [3],number of metastatic tumor nodules [3],percent survival [3],tumor volume [3],tumor weight [3],percent survival and TUNEL-positive apoptotic cells in tumor tissues [4],tumor growth and metastasis to the lungs [4],intracellular localization [5],"induction of apoptosis, MDA-MB231 [6]",growth of MDA-MB231-luc metastases in the lungs ([7]; crizotinib 25 mg/kg oral twice weekly for 3 weeks),"survival rate ([7]; peptide 14.2 mg/kg i.v. thrice weekly or crizotinib 25 mg/kg oral twice weekly, 3 weeks, single treatment)"
–,CC(C)C[C@H](NC(=O)[C@H](CCCCN)NC(=O)CNC(=O)CNC(=O)CNC(=O)[C@H](CS)NC(=O)[C@H](CO)NC(=O)[C@H](CCCCN)NC(=O)[C@H](CC(C)C)NC(=O)[C@H](CCC(N)=O)NC(=O)[C@H](Cc1c[nH]c2ccccc12)NC(=O)[C@H](CCC(=O)O)NC(=O)[C@H](CC(N)=O)NC(=O)[C@@H](N)CS)C(=O)N[C@@H](C)C(=O)N[C@@H](CCCCN)C(=O)N[C@@H](CC(C)C)C(=O)N[C@@H](C)C(=O)N[C@@H](CCCCN)C(=O)N[C@@H](CCCCN)C(=O)N[C@@H](CC(C)C)C(=O)N[C@@H](C)C(=O)N[C@@H](CCCCN)C(=O)N[C@@H](CC(C)C)C(=O)N[C@@H](C)C(=O)N[C@@H](CCCCN)C(=O)O [NEW-KLA] (H-CNEWQLKSCGGGKLAKLAKKLAKLAK-OH),more efficiently than the combined treatment,more efficiently than the combined treatment,within or close to the normal ranges,decreased,increasing,reduced,increasing,reduced,reduced,increased,inhibited,closely co-localized with mitochondria and lysosomes,more efficiently than the combined treatment,–,–
–,"C[C@@H](Oc1cc(-c2cnn(C3CCNCC3)c2)cnc1N)c1c(Cl)ccc(F)c1Cl [crizotinib, reference compound]",–,–,–,–,–,–,–,–,–,–,–,–,–,inhibited,increased the survival rate
–,CC[C@H](C)[C@H](NC(=O)[C@@H](NC(=O)[C@H](CC(N)=O)NC(=O)[C@H](CC(C)C)NC(=O)[C@H](CC(N)=O)NC(=O)[C@@H](N)CS)[C@@H](C)O)C(=O)N[C@@H](CC(=O)O)C(=O)N[C@H](C(=O)N[C@@H](CS)C(=O)NCC(=O)NCC(=O)NCC(=O)N[C@@H](CCCCN)C(=O)N[C@@H](CC(C)C)C(=O)N[C@@H](C)C(=O)N[C@@H](CCCCN)C(=O)N[C@@H](CC(C)C)C(=O)N[C@@H](C)C(=O)N[C@@H](CCCCN)C(=O)N[C@@H](CCCCN)C(=O)N[C@@H](CC(C)C)C(=O)N[C@@H](C)C(=O)N[C@@H](CCCCN)C(=O)N[C@@H](CC(C)C)C(=O)N[C@@H](C)C(=O)N[C@@H](CCCCN)C(=O)O)[C@@H](C)O [NLN-KLA] (H-CNLNTIDTCGGGKLAKLAKKLAKLAK-OH),more efficiently than the combined treatment,more efficiently than the combined treatment,within or close to the normal ranges,decreased,increasing,reduced,increasing,reduced,reduced,increased,inhibited,closely co-localized with mitochondria and lysosomes,more efficiently than the combined treatment,–,–
12,"CNLNTIDTC [… peptide (NLN), label not stated]",–,–,–,–,–,–,–,–,–,–,–,–,–,–,–
18,"CNEWQLKSC [… peptide (NEW), label not stated]",–,–,–,–,–,–,–,–,–,–,–,–,–,–,–

# Source: PMC7738880, “Identification of novel CD44v6-binding peptides that block CD44v6 and deliver a pro-apoptotic peptide to tumors to inhibit tumor growth and metastasis in mice” (Theranostics, 2021)
